Activity calls are given as the source filed them. The rule behind the calls is not given here.
Experiments:
[1] = system: ECa-109 cell line; assay: Antiproliferative activity against human EC109 cells after 48 hrs by MTT assay; format: functional, cell-based; details: ECa-109, 48 h
[2] = system: PC-3; assay: Antiproliferative activity against human PC3 cells after 48 hrs by MTT assay; format: functional, cell-based; details: PC-3, 48 h
[3] = system: MGC-803; assay: Antiproliferative activity against human MGC803 cells after 48 hrs by MTT assay; format: functional, cell-based; details: MGC-803, 48 h
[4] = system: MGC-803; assay: Induction of apoptosis in human MGC803 cells assessed as necrotic cells at 200 nM after 48 hrs by Annexin-V-FITC/propidium iodide staining based flow cytometry (reference value: 0.1%); format: functional
[5] = system: MGC-803; assay: Induction of apoptosis in human MGC803 cells assessed as decrease in PARP level after 48 hrs by Western blot analysis; format: functional, cell-based
[6] = system: MGC-803; assay: Disruption of mitochondrial membrane potential in human MGC803 cells assessed as collapse of the mitochondrial membrane potential at 400 nM after 48 hrs by JC1 staining based flow cytometry (reference value: 96.1%); format: functional
[7] = system: MGC-803; assay: Cell cycle arrest in human MGC803 cells assessed as accumulation at G2 phase at 200 nM after 48 hrs by propidium iodide staining based flow cytometry (reference value: 8.76%); format: functional
[8] = system: MGC-803; assay: Cell cycle arrest in human MGC803 cells assessed as accumulation at S phase at 400 nM after 48 hrs by propidium iodide staining based flow cytometry (reference value: 24.8%); format: functional
[9] = system: MGC-803; assay: Disruption of mitochondrial membrane potential in human MGC803 cells after 48 hrs by JC1 staining based flow cytometry; format: functional, cell-based
[10] = system: MGC-803; assay: Induction of apoptosis in human MGC803 cells assessed as early apoptotic cells at 400 nM after 48 hrs by Annexin-V-FITC/propidium iodide staining based flow cytometry (reference value: 2.5%); format: functional
[11] = species: Homo sapiens; assay: Inhibition of EBI binding to beta-tubulin colchicine binding site in human MGC803 cells at […] preincubated for 2 hrs followed by EBI addition and measured after 2 hrs by Western blot analysis; format: cell-based
[12] = system: MGC-803; assay: Cell cycle arrest in human MGC803 cells assessed as accumulation at G1 phase at 400 nM after 48 hrs by propidium iodide staining based flow cytometry (reference value: 62.61%); format: functional
[13] = system: MGC-803; assay: Cell cycle arrest in human MGC803 cells assessed as down regulation of CDK1 expression after 48 hrs by Western blot analysis; format: functional, cell-based
[14] = system: MGC-803; assay: Induction of apoptosis in human MGC803 cells assessed as live cells at 200 nM after 48 hrs by Annexin-V-FITC/propidium iodide staining based flow cytometry (reference value: 96.4%); format: functional
[15] = system: MGC-803; assay: Induction of apoptosis in human MGC803 cells assessed as necrotic cells at 400 nM after 48 hrs by Annexin-V-FITC/propidium iodide staining based flow cytometry (reference value: 0.1%); format: functional
[16] = system: MGC-803; assay: Induction of apoptosis in human MGC803 cells assessed as live cells at 600 nM after 48 hrs by Annexin-V-FITC/propidium iodide staining based flow cytometry (reference value: 96.4%); format: functional
[17] = molecular target: Tubulin (Homo sapiens) (UniProt P68371+Q9H4B7+P0DPH7+P68366+Q13509+Q71U36+P04350+Q3ZCM7+P07437+P68363+Q9BQE3+Q6PEY2+Q13885+Q9BVA1+Q9BUF5); assay: Inhibition of tubulin polymerization in human MGC803 cells assessed as depolymerization of interphase microtubules at 600 nM after 4 to 8 hrs by DAPI staining based microscopic analysis; format: cell-based
[18] = system: MGC-803; assay: Induction of apoptosis in human MGC803 cells assessed as early apoptotic cells at 600 nM after 48 hrs by Annexin-V-FITC/propidium iodide staining based flow cytometry (reference value: 2.5%); format: functional
[19] = molecular target: Tubulin; assay: Inhibition of tubulin polymerization (unknown origin) measured every 5 mins by fluorescence assay; format: protein-complex assay, Homo sapiens
[20] = system: MGC-803; assay: Induction of apoptosis in human MGC803 cells assessed as early apoptotic cells at 200 nM after 48 hrs by Annexin-V-FITC/propidium iodide staining based flow cytometry (reference value: 2.5%); format: functional
[21] = system: MGC-803; assay: Induction of apoptosis in human MGC803 cells assessed as late apoptotic cells at 200 nM after 48 hrs by Annexin-V-FITC/propidium iodide staining based flow cytometry (reference value: 1%); format: functional
[22] = system: MGC-803; assay: Induction of apoptosis in human MGC803 cells assessed as decrease in XIAP level after 48 hrs by Western blot analysis; format: functional, cell-based
[23] = system: MGC-803; assay: Cell cycle arrest in human MGC803 cells assessed as accumulation at S phase at 200 nM after 48 hrs by propidium iodide staining based flow cytometry (reference value: 24.8%); format: functional
[24] = system: MGC-803; assay: Induction of apoptosis in human MGC803 cells assessed as live cells at 400 nM after 48 hrs by Annexin-V-FITC/propidium iodide staining based flow cytometry (reference value: 96.4%); format: functional
[25] = system: MGC-803; assay: Disruption of mitochondrial membrane potential in human MGC803 cells assessed as intact mitochondrial membrane at 600 nM after 48 hrs by JC1 staining based flow cytometry (reference value: 3.9%); format: functional
[26] = system: MGC-803; assay: Induction of apoptosis in human MGC803 cells assessed as decrease in Bcl2 level after 48 hrs by Western blot analysis; format: functional, cell-based
[27] = system: MGC-803; assay: Disruption of mitochondrial membrane potential in human MGC803 cells assessed as collapse of the mitochondrial membrane potential at 200 nM after 48 hrs by JC1 staining based flow cytometry (reference value: 96.1%); format: functional
[28] = system: MGC-803; assay: Disruption of mitochondrial membrane potential in human MGC803 cells assessed as intact mitochondrial membrane at 200 nM after 48 hrs by JC1 staining based flow cytometry (reference value: 3.9%); format: functional
[29] = system: MGC-803; assay: Cell cycle arrest in human MGC803 cells assessed as accumulation at G1 phase at 200 nM after 48 hrs by propidium iodide staining based flow cytometry (reference value: 62.61%); format: functional
[30] = system: MGC-803; assay: Cell cycle arrest in human MGC803 cells assessed as down regulation of cyclin B1 expression after 48 hrs by Western blot analysis; format: functional, cell-based
[31] = system: MGC-803; assay: Induction of apoptosis in human MGC803 cells assessed as late apoptotic cells at 600 nM after 48 hrs by Annexin-V-FITC/propidium iodide staining based flow cytometry (reference value: 1%); format: functional
[32] = system: MGC-803; assay: Cell cycle arrest in human MGC803 cells assessed as accumulation at G2 phase at 400 nM after 48 hrs by propidium iodide staining based flow cytometry (reference value: 8.76%); format: functional
[33] = system: MGC-803; assay: Induction of apoptosis in human MGC803 cells assessed as necrotic cells at 600 nM after 48 hrs by Annexin-V-FITC/propidium iodide staining based flow cytometry (reference value: 0.1%); format: functional
[34] = system: MGC-803; assay: Disruption of mitochondrial membrane potential in human MGC803 cells assessed as collapse of the mitochondrial membrane potential at 600 nM after 48 hrs by JC1 staining based flow cytometry (reference value: 96.1%); format: functional
[35] = system: MGC-803; assay: Induction of apoptosis in human MGC803 cells assessed as late apoptotic cells at 400 nM after 48 hrs by Annexin-V-FITC/propidium iodide staining based flow cytometry (reference value: 1%); format: functional
[36] = system: MGC-803; assay: Disruption of mitochondrial membrane potential in human MGC803 cells assessed as intact mitochondrial membrane at 400 nM after 48 hrs by JC1 staining based flow cytometry (reference value: 3.9%); format: functional
[37] = molecular target: Tubulin; assay: Inhibition of tubulin polymerization (unknown origin) by turbidimetric method; format: protein-complex assay, Homo sapiens
[38] = species: Homo sapiens; assay: Inhibition of EBI binding to beta-tubulin colchicine binding site in human MGC803 cells at 5 uM preincubated for 2 hrs followed by EBI addition and measured after 2 hrs by Western blot analysis; format: cell-based

COc1ccc(CN(C(=O)CCCCSc2nc3ccccc3o2)c2cc(OC)c(OC)c(OC)c2)cc1
IC50 [1]: 7.65 µM
IC50 [2]: 45.6 µM
IC50 [3]: 1.36 µM

COc1ccc(CN(C(=O)CCSc2nc3ccccc3o2)c2cc(OC)c(OC)c(OC)c2)cc1
IC50 [1]: 12.6 µM
IC50 [2]: 20.2 µM
IC50 [3]: 0.64 µM

COc1ccc(CN(C(=O)CSc2nc3ccccc3o2)c2cc(OC)c(OC)c(OC)c2)cc1
Activity [4]: 0.1%
IC50 [1]: 24.8 µM
Activity [5]: Dose-dependent effect
Activity [6]: 39.9%
Activity [7]: 12.13%
Activity [8]: 22.46%
Activity [9]: Dose-dependent effect
Activity [10]: 4.1%
inhibition [11]: Active
Activity [12]: 52.55%
Activity [13]: Dose-dependent effect
Activity [14]: 95.9%
Activity [15]: 1.9%
Activity [16]: 61.7%
inhibition [17]: Active
Activity [18]: 4.9%
IC50 [19]: 3.35 µM
Activity [20]: 2.8%
Activity [21]: 1.1%
Activity [22]: Dose-dependent effect
Activity [23]: 23.29%
Activity [24]: 89.7%
Activity [25]: 47.2%
Activity [26]: Dose-dependent effect
IC50 [2]: 3.53 µM
Activity [27]: 3.9%
Activity [28]: 96.1%
Activity [29]: 61.68%
Activity [30]: Dose-dependent effect
Activity [31]: 30.3%
Activity [32]: 20.71%
Activity [33]: 3.1%
IC50 [3]: 0.45 µM
Activity [34]: 52.8%
Activity [35]: 4.3%
Activity [36]: 60.1%

COc1ccc(CN(C(=O)CSc2nc3ccc(OC)cc3s2)c2cc(OC)c(OC)c(OC)c2)cc1
IC50 [1]: > 80 µM
IC50 [2]: 20.2 µM
IC50 [3]: 1.27 µM

COc1ccc(CN(C(=O)CSc2nncs2)c2cc(OC)c(OC)c(OC)c2)cc1
IC50 [1]: 9.84 µM
IC50 [2]: 5.53 µM
IC50 [3]: 1.15 µM

COc1ccc(CN(C(=O)CSc2ccccn2)c2cc(OC)c(OC)c(OC)c2)cc1
IC50 [1]: 16 µM
IC50 [2]: 7.51 µM
IC50 [3]: 2.41 µM

COc1ccc(CN(C(=O)CCCSc2nc3ccccc3o2)c2cc(OC)c(OC)c(OC)c2)cc1
IC50 [1]: 11 µM
IC50 [2]: 32.7 µM
IC50 [3]: 1.29 µM

COc1ccc(CN(C(=O)CSc2nc3ccccc3[nH]2)c2cc(OC)c(OC)c(OC)c2)cc1
IC50 [1]: 42.6 µM
IC50 [2]: 14.3 µM
IC50 [3]: 1.23 µM

COc1ccc(CN(C(=O)CSc2nnnn2C)c2cc(OC)c(OC)c(OC)c2)cc1
IC50 [1]: 5.54 µM
IC50 [2]: 10.5 µM
IC50 [3]: 2.49 µM

Cc1ccc(S(=O)(=O)NCc2cn(Cc3cccc(Oc4ccccc4)c3)nn2)cc1
IC50 [37]: 2.41 µM

COc1cc2c(c(OC)c1OC)-c1ccc(OC)c(=O)cc1[C@@H](NC(C)=O)CC2 [COLCHICINE]
IC50 [1]: 1.24 µM
IC50 [2]: 0.13 µM
inhibition [38]: Active
IC50 [3]: 0.177 µM

— ChEMBL document CHEMBL4270588, “Bioactive heterocycles containing a 3,4,5-trimethoxyphenyl fragment exerting potent antiproliferative activity through microtubule destabilization” (Eur J Med Chem, 2018)
